Assay results: PMC7751060 (Antiviral therapy, 2012)
Where two headings read alike, the source gives them in different places.

Tests used:
[1] = test system: MNV (MNV-1.CW3); assay: MNV assay: MNV RNA levels by RT-qPCR in RAW 264.7 cells; type: cell-based, murine norovirus; settings: for EC90 / EC50: Norwalk virus; for EC50: RAW264.7, read-out: EC50, concentration required to reduce MNV RNA copy number by 50%; for SI (CC50/EC50), MNV / Antiviral activity against MNV (RNA levels), in words: RAW 264.7 cells; for Antiviral activity against MNV (RNA levels), in words: 0.1-100 μM (RBV 10-200 μM)
[2] = test system: MNV (MNV-1.CW3); assay: MNV assay: MNV infectivity by TCID50 in RAW 264.7 cells; type: cell-based, murine norovirus; settings: for Effect on MNV titre (infectivity), in words: RAW 264.7 cells, TCID50
[3] = Cytotoxicity assays; type: cell-based; settings: mouse, RAW 264.7 cells
[4] = test system: NV replicon (HG23 cells); assay: Norwalk virus replicon assay: NV RNA by RT-qPCR in HG23 cells; type: cell-based; settings: for Reduction in NV RNA: 10 μM; for Effect on NV RNA levels in HG23 cells, in words: 24-96 h post-treatment; for SI / therapeutic index (CC50/EC50), NV replicon: HG23 cells; for EC90: HG23, read-out: EC90, concentration required to reduce NV RNA copy number in HG23 cells by 90%
[5] = test system: NPT II expression in HG23 cells; assay: Western blot of NPT II expression in HG23 cells; type: cell-based, Norwalk virus; settings: for NPT II expression, % of untreated cells: 72 h incubation; for IC50: Norwalk virus, HG23, read-out: IC50, concentration required to reduce NPT II expression in HG23 cells by 50%
[6] = Cytotoxicity assays; type: cell-based; settings: human, HG23 and Huh-7 cells
[7] = test system: HCV; settings: cited from earlier work
[8] = test system: bovine viral diarrhoea virus (BVDV); settings: cited from earlier work
[9] = test system: HCV infections; settings: reportedly; Phase II, treatment of HCV; cited from earlier work
[10] = cited from earlier work
[11] = RAW264.7, read-out: EC90, concentration required to reduce MNV RNA copy number by 90%
[12] = Norwalk virus, HG23, read-out: EC50, concentration required to reduce NV RNA copy number in HG23 cells by 50%, RT-qPCR
[13] = read-out: EC50, concentration required to reduce NV RNA copy number in HG23 cells by 50%, RT-qPCR

Row | SMILES | EC50 [1] | EC90 [1, 11] | SI (CC50/EC50), MNV [1] | Antiviral activity against MNV (RNA levels), in words [1] | Effect on MNV titre (infectivity), in words [2] | CC50 at 5 days [3] | Effect on NV RNA levels in HG23 cells, in words [4] | SI / therapeutic index (CC50/EC50), NV replicon [4] | EC50 [4, 12] | EC90 ([4]; Norwalk virus) | CC50 at 5 days [6] | also measured
1 | C[C@@]1(O)[C@H](O)[C@@H](CO)O[C@H]1n1ccc(N)nc1=O [2′-C-MeC, 4-amino-1-((2R, 3R, 4R, 5R)-3,4 dihydroxy-5-(hydroxymethyl)-3-methyltetrahydrofuran-2-yl) pyrimidin-2(1H)-one] | 6.9 ± 3.9 µM | 25.4 ± 3.6 µM | >14.6 | dose- and time-dependent reduction of MNV RNA levels | MNV titres were significantly reduced | > 100 µM | dose- and time-dependent reduction of NV RNA levels | > 77.5 | 1.3 µM | 8.9 ± 1.5 µM | > 100 µM | Reduction of MNV RNA levels ([1]; 0.1 μM, 72 h of exposure): 2 log10; Inhibition of MNV replication (RNA) ([1]; 100 μM, 24 h post-treatment): 3 log10; EC90 ([1]; RAW264.7, 24 h, read-out: EC90, MNV RNA (1 log10 reduction) (converted)): 25.6 ± 3.7 µM; inhibition at 100 µM ([2]; Norwalk virus, RAW264.7, 24 h, read-out: Inhibition of MNV replication (titre)): 99%; Reduction in NV RNA ([4]; 72 h post-treatment): 1.2 log10; Reduction in NV RNA ([4]; 96 h post-treatment): 3.6 log10; Reduction of NV RNA level ([4]; 0.1 and 1 μM, after 96 h): 2.5 log10; EC50 [4, 13]: 1.29 ± 0.8 µM; NPT II expression, % of untreated cells ([5]; 1 μM): 83%; NPT II expression, % of untreated cells ([5]; 10 μM): 13%; NPT II expression, % of untreated cells ([5]; 100 μM): 2%; IC50 [5]: 2.77 ± 1.4 µM; EC50 ([7]; read-out: EC50 against HCV, range given for HCV and BVDV together): 2 to 7 µM; EC50 ([8]; read-out: EC50 against BVDV, range given for HCV and BVDV together): 2 to 7 µM
2 | NC(=O)c1ncn([C@@H]2O[C@H](CO)[C@@H](O)[C@H]2O)n1 [RBV, ribavirin, reference compound] | 63.5 ± 2.3 µM | 105 ± 1.5 µM | >1.6 | reduced MNV RNA levels in a dose-dependent manner at 12 h and 24 h post-treatment |  | > 100 µM |  | >5.0 | 40 ± 2.3 µM | 96.3 ± 2.5 µM | > 200 µM | 
3 | C[C@@]1(F)[C@H](O)[C@@H](CO)O[C@H]1n1ccc(N)nc1=O [2′-F-2′-C-MeC, 4-amino-1-((2R, 3R, 4R, 5R)-3-fluoro-4-hydroxy-5-(hydroxymethyl)-3-methyltetrahydrofuran-2-yl) pyrimidin-2(1H)-one] | 12.7 ± 2.9 µM | 91.2 ± 2.8 µM | >7.9 | dose-dependent antiviral activity only at 12 h post-treatment | reduced MNV titres, but only at 12 h post-treatment | > 100 µM | dose- and time-dependent reduction of NV RNA levels | > 31.4 | 3.2 ± 1.5 µM | 49 ± 2.9 µM | > 100 µM | IC50 ([2]; Norwalk virus, RAW264.7, 12 h, read-out: IC50, MNV infectivity): 33.9 ± 1.1 µM; Activity against HCV replication, in words [7]: inhibits HCV; Activity against BVDV replication, in words [8]: not BVDV replication
4 | Nc1ccn([C@@H]2CS[C@H](CO)O2)c(=O)n1 [3TC, 4-amino-1-((2R, 5S)-2-(hydroxymethyl)-1,3-oxathiolan-5-yl) pyrimidin-2(1H)-one, reference compound] |  |  |  | Neither 3TC nor NHC had antiviral activity against MNV | No reduction of MNV titre was observed | > 100 µM | did not show antiviral activity |  |  |  | > 100 µM | 
5 | CC(C)C(=O)OC[C@H]1O[C@@H](n2ccc(N)nc2=O)[C@](C)(F)[C@@H]1OC(=O)C(C)C [RG-7128] |  |  |  |  |  |  |  |  |  |  |  | Clinical outcome in HCV trials, in words [9]: demonstrated safety and efficacy against HCV
6 | CC(C)[C@H](N)C(=O)O[C@@H]1[C@@H](CO)O[C@@H](n2ccc(N)nc2=O)[C@]1(C)O [NM-283] |  |  |  |  |  |  |  |  |  |  |  | Clinical outcome in HCV trials, in words [9]: found to have gastrointestinal problems
7 | O=c1nc(NO)ccn1[C@@H]1O[C@H](CO)[C@@H](O)[C@H]1O [NHC, 1-((2R, 3R, 4S, 5R)-3,4-dihydroxy-5-(hydroxymethyl)tetrahydrofuran-2-yl)-4-(hydroxyamino) pyrimidin-2(1H)-one] | 8.8 ± 4.2 µM |  | >11.4 | Neither 3TC nor NHC had antiviral activity against MNV | No reduction of MNV titre was observed | > 100 µM | dose- and time-dependent reduction of NV RNA levels | > 68.0 | 1.5 µM | 16.6 ± 2.1 µM | > 100 µM | EC50 [4, 13]: 1.47 ± 1.1 µM; NPT II expression, % of untreated cells ([5]; 1 μM): 91%; NPT II expression, % of untreated cells ([5]; 10 μM): 40%; NPT II expression, % of untreated cells ([5]; 100 μM): 16%; IC50 [5]: 6 ± 1.7 µM; Activity against HCV, in words [7]: active against HCV, BVDV; Activity against BVDV, in words [8]: active against HCV, BVDV; Mutagenic properties [10]: has mutagenic properties
